Changes are numbered by the printed parent chain. Several values for one entry are separate records, joined by “and”; a condition that tells them apart may be missing. Equal entries are not always repeated. Where two headings read alike, the source gives them in different places.
Experiments:
Type in all cases: cell-based
hTA1 = target: T1, hTA1 (Homo sapiens, UniProt Q96RJ0); experiment: GloSensor cAMP accumulation assay, concentration response, wild-type hTA1 in transfected HEK293T cells; details: for Emax: HEK-293T;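 as to all read-outs here: luminescence read after 30 min compound exposure at room temperature in cells preloaded with D-Luciferin, reflecting Gs-driven cAMP rise, efficacy scaled to the maximal β-PEA response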
T1 construct: expressed in transfected cells; host or cells: HEK293T
T1 sequence (Q96RJ0 1-339): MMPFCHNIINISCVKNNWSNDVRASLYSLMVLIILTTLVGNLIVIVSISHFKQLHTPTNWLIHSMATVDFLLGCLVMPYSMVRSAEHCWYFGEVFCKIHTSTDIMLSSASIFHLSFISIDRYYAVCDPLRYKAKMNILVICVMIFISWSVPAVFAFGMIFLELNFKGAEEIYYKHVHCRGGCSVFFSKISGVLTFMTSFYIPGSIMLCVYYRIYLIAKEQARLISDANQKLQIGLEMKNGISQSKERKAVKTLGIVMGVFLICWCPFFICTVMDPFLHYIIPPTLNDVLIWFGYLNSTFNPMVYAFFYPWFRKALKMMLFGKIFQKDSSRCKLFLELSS

hTA1 b2N = target: T2, hTA1 b2N (Homo sapiens, UniProt Q96RJ0); experiment: GloSensor cAMP accumulation assay, b2N construct
T2 construct: read by me as the first 25 residues of β2AR (N); expressed in transfected cells; host or cells: HEK293T

hTA1 C13S = target: T3, hTA1 C13S (Homo sapiens, UniProt Q96RJ0, C13S); experiment: GloSensor cAMP accumulation assay, C13S mutant; details: for C13S - Normalized Luminescence Counts (N=2): log[Compound], single wells
T3 construct: expressed in transfected cells; host or cells: HEK293T
T3 sequence (Q96RJ0 1-339 C13S): T1 sequence (Q96RJ0 1-339) with C13S

hTA1 S107C = target: T4, hTA1 S107C (Homo sapiens, UniProt Q96RJ0, S107C); experiment: GloSensor cAMP accumulation assay, S107C mutant;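 also: cells transiently co-expressing receptor and GloSensor biosensor, luminescence read after 30 min agonist exposure at room temperature, concentration-response fitted by nonlinear regression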
T4 construct: expressed in transfected cells; host or cells: HEK293T
T4 sequence (Q96RJ0 1-339 S107C): T1 sequence (Q96RJ0 1-339) with S107C

hTA1 I290Y = target: T5, hTA1 I290Y (Homo sapiens, UniProt Q96RJ0, I290Y); experiment: GloSensor cAMP accumulation assay, I290Y mutant; details: for cAMP accumulation response, normalized (concentration-response source data, single replicate values): hTA1 I290Y (N=3), log[Compound];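 as to cAMP accumulation response, normalized (concentration-response source data, single replicate values): normalized to the maximum response of β-PEA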
T5 construct: expressed in transfected cells; host or cells: HEK293T
T5 sequence (Q96RJ0 1-339 I290Y): T1 sequence (Q96RJ0 1-339) with I290Y

hTA1 T271N = target: T6, hTA1 T271N (Homo sapiens, UniProt Q96RJ0, T271N); experiment: GloSensor cAMP accumulation assay, T271N mutant
T6 construct: expressed in transfected cells; host or cells: HEK293T
T6 sequence (Q96RJ0 1-339 T271N): T1 sequence (Q96RJ0 1-339) with T271N

[1] = read-out: Span ± SEM (Emax normalized to β-PEA)

T2 sequence (Q96RJ0 with tags, fused parts or gaps): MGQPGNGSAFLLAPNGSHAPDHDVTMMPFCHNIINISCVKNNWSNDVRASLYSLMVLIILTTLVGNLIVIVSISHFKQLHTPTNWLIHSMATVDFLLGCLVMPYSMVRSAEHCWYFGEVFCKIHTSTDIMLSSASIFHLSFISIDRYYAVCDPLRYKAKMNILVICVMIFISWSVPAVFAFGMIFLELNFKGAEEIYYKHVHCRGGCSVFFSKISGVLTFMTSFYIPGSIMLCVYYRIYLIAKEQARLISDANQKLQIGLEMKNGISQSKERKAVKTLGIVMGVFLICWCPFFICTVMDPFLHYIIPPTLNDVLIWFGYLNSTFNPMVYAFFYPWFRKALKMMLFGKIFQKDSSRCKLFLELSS

SMILES: CCC(CC1COC(N)=N1)c1ccccc1 (stereo not shown) [Ro5256390]
- EC50 (hTA1; EC50, wt hTA1, HEK293T, n=3): 5.33 nM and 5.3 nM
- Emax (hTA1; read-out: Emax values (Mean), WT hTA1, β-PEA = 100, each line an independent experiment, 3 replicates): 105%
- Emax (hTA1; wt hTA1, relative to β-PEA): 103%
- Emax values, Mean (hTA1; WT hTA1, β-PEA = 100, each line an independent experiment, 3 replicates): 101.582
- Emax values, Avg (hTA1; WT, average of the experiments, β-PEA = 100): 103.3
- Emax values, Avg (hTA1; WT, average of the two experiments): 103.3
- Emax values, Mean (hTA1; WT, mean of each independent experiment (3 replicates), β-PEA = 100): 105.026 and 101.582
- Emax values, Mean (hTA1; WT, single experiments (3 replicates each), β-PEA = 100): 105.026 and 101.582
- EC50 (hTA1; pEC50 values (Mean), WT hTA1, each line an independent experiment, 3 replicates, Figure 2B source data): 4.28 nM and 6.65 nM
- EC50 (hTA1; pEC50 ± SEM, wt hTA1, HEK293T, n=3): 5.37 nM
- EC50 (hTA1 b2N): 1.56 nM
- Emax (hTA1 b2N; [1]): 97.7 ± 9.34%
- ΔpEC50 values (each mutant value - WT average) (hTA1 C13S; C13S): -0.1093 and -0.3651
- Emax values (hTA1 C13S; C13S, Mean of fit per experiment): 104.119
- EC50 (hTA1 C13S; EC50, C13S, n=2): 9.21 nM
- C13S - Normalized Luminescence Counts (N=2) (hTA1 C13S; M = -5): 108.406 and 95.388 and 120.776 and 112.887 and 109.603 and 114.083
- C13S - Normalized Luminescence Counts (N=2) (hTA1 C13S; M = -5.522): 112.25 and 104.067 and 102.43 and 107.496 and 95.9649 and 109.96
- C13S - Normalized Luminescence Counts (N=2) (hTA1 C13S; M = -6): 90.5159 and 87.1282 and 84.9205 and 101.909 and 92.8231 and 104.73
- C13S - Normalized Luminescence Counts (N=2) (hTA1 C13S; M = -6.522): 96.2254 and 77.4601 and 94.8551 and 102.052 and 85.8613 and 107.282
- EC50 (hTA1 C13S; pEC50 values, Mean, hTA1 C13S, mean of 3 replicates, one line per independent experiment): 6.86 nM and 12.4 nM
- Emax (hTA1 C13S; read-out: Emax values, C13S, Mean of fit per experiment): 96.6%
- Emax (hTA1 C13S; read-out: Span ± SEM (Emax normalized to β-PEA), C13S, n=2): 100 ± 3.73%
- EC50 (hTA1 S107C; EC50, S107C, n=2): 504 nM
- decrease in potency vs wild type (hTA1 S107C; S107C): approximately 100 fold
- ΔEmax values (each mutant value - WT average) (hTA1 S107C; S107C mutant minus WT average): -34.2322
- Emax values, Mean (hTA1 S107C; S107C mutant, β-PEA = 100, each line an independent experiment, 3 replicates): 69.072 and 124.486
- Emax (hTA1 S107C; read-out: Span ± SEM (Emax normalized to β-PEA), S107C, n=2): 88.8 ± 19.8%
- EC50 (hTA1 I290Y; EC50, I290Y): 3.79 nM
- Emax values, Mean (hTA1 I290Y; I290Y, single experiments (3 replicates each), β-PEA = 100): 89.4977 and 95.7835 and 67.042
- cAMP accumulation response, normalized (concentration-response source data, single replicate values) (hTA1 I290Y; M = -5): 116.004 and 90.4575 and 99.9991 and 95.6306 and 94.8977 and 106.257 and 79.386 and 92.9217 and 71.4902
- cAMP accumulation response, normalized (concentration-response source data, single replicate values) (hTA1 I290Y; M = -5.522): 112.926 and 87.6874 and 89.8419 and 104.792 and 95.2641 and 96.3635 and 62.4664 and 47.8027 and 61.3384
- cAMP accumulation response, normalized (concentration-response source data, single replicate values) (hTA1 I290Y; M = -6): 83.3783 and 72.6056 and 91.3809 and 91.5998 and 83.1717 and 95.997 and 59.0825 and 62.4664 and 68.1063
- cAMP accumulation response, normalized (concentration-response source data, single replicate values) (hTA1 I290Y; M = -6.522): 92.9198 and 66.4498 and 97.2289 and 82.4388 and 92.3327 and 95.997 and 63.5944 and 55.6986 and 61.3384
- cAMP accumulation response, normalized (concentration-response source data, single replicate values) (hTA1 I290Y; M = -7): 110.156 and 60.6017 and 92.3043 and 89.4012 and 82.4388 and 95.997 and 47.8027 and 61.3384 and 55.6986
- cAMP accumulation response, normalized (concentration-response source data, single replicate values) (hTA1 I290Y; M = -7.522): 92.6121 and 50.1368 and 96.6133 and 79.5073 and 85.3703 and 95.2641 and 50.0587 and 56.8265 and 52.3146
- cAMP accumulation response, normalized (concentration-response source data, single replicate values) (hTA1 I290Y; M = -8): 93.8432 (2×) and 82.1471 and 71.4457 and 85.3703 and 69.6135 and 30.8831 (2×) and 25.2433
- cAMP accumulation response, normalized (concentration-response source data, single replicate values) (hTA1 I290Y; M = -8.522): 58.1394 and 51.6758 and 54.7537 and 45.0622 and 47.6273 and 45.4287 and 15.0915 and 9.4516 and 13.9635
- cAMP accumulation response, normalized (concentration-response source data, single replicate values) (hTA1 I290Y; M = -9): 42.442 and 23.359 and 39.3641 and 21.9767 and 28.939 and 28.2061 and 3.812 and 2.684 and 9.4516
- cAMP accumulation response, normalized (concentration-response source data, single replicate values) (hTA1 I290Y; M = -9.522): 12.5863 and 7.046 and 12.2785 and 10.9836 and 8.785 and 11.7164 and -2.956 and -1.828 and 0.4278
- cAMP accumulation response, normalized (concentration-response source data, single replicate values) (hTA1 I290Y; M = -10): 11.6629 and 9.816 and 11.9707 and -2.575 and -0.376 and 1.456 and 0.4278 and -0.7002 and -1.828
- cAMP accumulation response, normalized (concentration-response source data, single replicate values) (hTA1 I290Y; M = -10.522): 3.045
- EC50 (hTA1 I290Y; pEC50 values, Mean, I290Y, single experiments (3 replicates each)): 1.77 nM and 2.74 nM and 11.3 nM
- EC50 (hTA1 I290Y; pEC50 ± SEM, I290Y): 3.8 nM
- Emax (hTA1 I290Y; [1]): 84.1 ± 8.72%
- EC50 (hTA1 T271N; EC50, T271N, n=2): 12.6 nM
- ΔpEC50 values (each mutant value - WT average), Mean (hTA1 T271N; T271N mutant minus WT average, Figure 5B): -0.2524 and -0.4929
- Emax values, Mean (hTA1 T271N; T271N mutant, Figure 5B, β-PEA = 100, each row one independent experiment (3 replicates)): 121.264 and 99.7038
- EC50 (hTA1 T271N; pEC50 values, Mean, T271N mutant, Figure 5B, each row one independent experiment (3 replicates)): 9.54 nM and 16.6 nM
- Emax (hTA1 T271N; read-out: Span ± SEM (Emax normalized to β-PEA), T271N, n=2): 110%

Source: paper PMC10762035, “Molecular basis of human trace amine-associated receptor 1 activation” (Nature Communications, 2024)
